Laboratory results taken from PubChem BioAssay AID248 (DTP/NCI, 2004).
Several values for one entry are separate records, joined by “and”; a condition that tells them apart may be missing. Equal values may be shown once. Toxic doses and inconclusive results are not listed.

Tested on: L1210 leukemia ip in BDF1 mice, survival T/C
Experiment: NCI In Vivo Anticancer Drug Screen. Data for tumor model L1210 Leukemia (intraperitoneal) in B6D2F1 (BDF1) mice
Conditions: endpoint: mean survival time, higher = longer survival
How it was run: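 Each compound was tested against a transplantable tumor grown in mice. The endpoint was survival, with treated animals benchmarked against vehicle controls as a simple ratio.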

[1] = dose: 100.0 mg/kg/injection, schedule: Q01DX009 (ip), vehicle: saline
[2] = dose: 100.0 mg/kg/injection, schedule: Q04DX003 (ip), vehicle: saline
[3] = dose: 200.0 mg/kg/injection, schedule: Q01DX009 (ip), vehicle: saline
[4] = dose: 200.0 mg/kg/injection, schedule: Q04DX003 (ip), vehicle: saline
[5] = dose: 400.0 mg/kg/injection, schedule: Q04DX003 (ip), vehicle: saline
[6] = dose: 100.0 mg/kg/injection, schedule: Q01DX009 (ip), vehicle: Klucel (hydroxypropylcellulose) (HPC)
[7] = dose: 400.0 mg/kg/injection, schedule: Q01DX009 (ip), vehicle: saline
[8] = dose: 100.0 mg/kg/injection, schedule: Q04DX003 (ip), vehicle: Klucel (hydroxypropylcellulose) (HPC)
[9] = dose: 200.0 mg/kg/injection, schedule: Q04DX003 (ip), vehicle: Klucel (hydroxypropylcellulose) (HPC)
[10] = dose: 400.0 mg/kg/injection, schedule: Q04DX003 (ip), vehicle: Klucel (hydroxypropylcellulose) (HPC)

## CCCC1(CCC)CN(CO)C1=O
dose: 25.0 mg/kg/injection, schedule: Q01DX009 (ip), vehicle: saline
  T/C: 102 % of control
dose: 25.0 mg/kg/injection, schedule: Q04DX003 (ip), vehicle: saline
  T/C: 93 % of control
dose: 50.0 mg/kg/injection, schedule: Q01DX009 (ip), vehicle: saline
  T/C: 102 % of control
dose: 50.0 mg/kg/injection, schedule: Q04DX003 (ip), vehicle: saline
  T/C: 98 % of control
[1]
  T/C: 100 % of control
[2]
  T/C: 104 % of control
[3]
  T/C: 97 % of control
[4]
  T/C: 104 % of control
[5]
  T/C: 88 % of control

## COc1cc(C(=O)NNC(=O)C(=O)NNC(=O)c2cc(OC)c(OC)c(OC)c2)cc(OC)c1OC
dose: 6.25 mg/kg/injection, schedule: Q01DX009 (ip), vehicle: Klucel (hydroxypropylcellulose) (HPC)
  T/C: 95 % of control
dose: 12.5 mg/kg/injection, schedule: Q01DX009 (ip), vehicle: Klucel (hydroxypropylcellulose) (HPC)
  T/C: 96 % of control and 101 % of control
dose: 25.0 mg/kg/injection, schedule: Q01DX009 (ip), vehicle: Klucel (hydroxypropylcellulose) (HPC)
  T/C: 102 % of control
dose: 50.0 mg/kg/injection, schedule: Q01DX009 (ip), vehicle: Klucel (hydroxypropylcellulose) (HPC)
  T/C: 92 % of control and 98 % of control and 101 % of control
[6]
  T/C: 86 % of control

## O=C1c2cc([N+](=O)[O-])ccc2-c2cccc(F)c21
dose: 100.0 mg/kg/injection, schedule: Q04DX003 (ip), vehicle: acetone
  T/C: 102 % of control
dose: 200.0 mg/kg/injection, schedule: Q04DX003 (ip), vehicle: acetone
  T/C: 94 % of control
dose: 400.0 mg/kg/injection, schedule: Q04DX003 (ip), vehicle: acetone
  T/C: 109 % of control

## COC(=O)C(C(=O)OC)C(Br)C(Br)C(Br)c1ccccc1 (configuration not stated)
dose: 75.0 mg/kg/injection, schedule: Q01DX001 (ip), vehicle: other
  T/C: 91 % of control
dose: 150.0 mg/kg/injection, schedule: Q01DX001 (ip), vehicle: other
  T/C: 94 % of control
dose: 300.0 mg/kg/injection, schedule: Q01DX001 (ip), vehicle: other
  T/C: 96 % of control

## O=S(=O)(O)c1cc(O)c2ccccc2c1
[1]
  T/C: 90 % of control
[2]
  T/C: 109 % of control
[3]
  T/C: 90 % of control
[4]
  T/C: 109 % of control
[7]
  T/C: 95 % of control
[5]
  T/C: 109 % of control

## CCCCCC(C)C1=NC(C)(C)CC(C)O1 (configuration not stated)
dose: 5.0 mg/kg/injection, schedule: Q04DX003 (ip), vehicle: saline with Tween-80
  T/C: 101 % of control
dose: 10.0 mg/kg/injection, schedule: Q04DX003 (ip), vehicle: saline with Tween-80
  T/C: 95 % of control
dose: 20.0 mg/kg/injection, schedule: Q04DX003 (ip), vehicle: saline with Tween-80
  T/C: 108 % of control

## ClC1=C(Cl)C2(Cl)C(C1Cl)C1(Cl)C(Cl)=C(Cl)C2(Cl)C1Cl (configuration not stated)
[6]
  T/C: 97 % of control
[8]
  T/C: 102 % of control
dose: 200.0 mg/kg/injection, schedule: Q01DX009 (ip), vehicle: Klucel (hydroxypropylcellulose) (HPC)
  T/C: 97 % of control
[9]
  T/C: 104 % of control
dose: 400.0 mg/kg/injection, schedule: Q01DX009 (ip), vehicle: Klucel (hydroxypropylcellulose) (HPC)
  T/C: 97 % of control
[10]
  T/C: 93 % of control

## O=C(CI)Nc1ccc2oc(=O)c(C(=O)O)cc2c1
dose: 20.0 mg/kg/injection, schedule: Q01DX001 (ip), vehicle: Klucel (hydroxypropylcellulose) (HPC)
  T/C: 100 % of control
dose: 40.0 mg/kg/injection, schedule: Q01DX001 (ip), vehicle: Klucel (hydroxypropylcellulose) (HPC)
  T/C: 108 % of control
dose: 80.0 mg/kg/injection, schedule: Q01DX001 (ip), vehicle: Klucel (hydroxypropylcellulose) (HPC)
  T/C: 107 % of control
dose: 100.0 mg/kg/injection, schedule: Q01DX001 (ip), vehicle: Klucel (hydroxypropylcellulose) (HPC)
  T/C: 97 % of control

## CCOC(=O)C1CN(S(=O)(=O)c2ccc(C)cc2)c2ccccc2C(=O)C1/C(=C/C(=O)OC)C(=O)OC (configuration not stated)
[8]
  T/C: 96 % of control
[9]
  T/C: 94 % of control
[10]
  T/C: 86 % of control

## COc1ccc(C)cc1OC(CCC(C)C)C(C)=O (configuration not stated)
dose: 75.0 mg/kg/injection, schedule: Q01DX001 (ip), vehicle: carboxymethylcellulose (CMC)
  T/C: 93 % of control
dose: 150.0 mg/kg/injection, schedule: Q01DX001 (ip), vehicle: carboxymethylcellulose (CMC)
  T/C: 96 % of control
dose: 300.0 mg/kg/injection, schedule: Q01DX001 (ip), vehicle: carboxymethylcellulose (CMC)
  T/C: 90 % of control

## COc1cc(C(=O)NCC(=O)O)cc(OC)c1OC
[1]
  T/C: 86 % of control
[2]
  T/C: 107 % of control
[3]
  T/C: 86 % of control
[4]
  T/C: 98 % of control
[5]
  T/C: 95 % of control

## O=C(NNC(=O)Nc1ccc(C2=NCCN2)cc1)Nc1ccc(C2=NCCN2)cc1
dose: 8.0 mg/kg/injection, schedule: Q01DX Z (ip), vehicle: carboxymethylcellulose (CMC)
  T/C: 95 % of control
dose: 16.0 mg/kg/injection, schedule: Q01DX Z (ip), vehicle: carboxymethylcellulose (CMC)
  T/C: 98 % of control
dose: 32.0 mg/kg/injection, schedule: Q01DX Z (ip), vehicle: carboxymethylcellulose (CMC)
  T/C: 108 % of control
dose: 64.0 mg/kg/injection, schedule: Q01DX Z (ip), vehicle: carboxymethylcellulose (CMC)
  T/C: 165 % of control

## COC(=O)C(N)CSCSC (configuration not stated)
[1]
  T/C: 107 % of control
[2]
  T/C: 103 % of control
[3]
  T/C: 101 % of control
[4]
  T/C: 105 % of control
[7]
  T/C: 101 % of control
[5]
  T/C: 97 % of control

## COc1ccc(OC)c(N(CCN2C(=O)c3ccccc3C2=O)C(=O)CCl)c1
dose: 25.0 mg/kg/injection, schedule: Q04DX002 (ip), vehicle: Klucel (hydroxypropylcellulose) (HPC)
  T/C: 97 % of control
dose: 50.0 mg/kg/injection, schedule: Q04DX002 (ip), vehicle: Klucel (hydroxypropylcellulose) (HPC)
  T/C: 90 % of control
dose: 100.0 mg/kg/injection, schedule: Q04DX002 (ip), vehicle: Klucel (hydroxypropylcellulose) (HPC)
  T/C: 97 % of control and 91 % of control

## COC(=O)c1ccc(=O)oc1
dose: 50.0 mg/kg/injection, schedule: Q01DX009 (ip), vehicle: gum acacia
  T/C: 105 % of control
dose: 100.0 mg/kg/injection, schedule: Q01DX009 (ip), vehicle: gum acacia
  T/C: 100 % of control
dose: 100.0 mg/kg/injection, schedule: Q04DX003 (ip), vehicle: gum acacia
  T/C: 98 % of control
dose: 200.0 mg/kg/injection, schedule: Q01DX009 (ip), vehicle: gum acacia
  T/C: 88 % of control
dose: 200.0 mg/kg/injection, schedule: Q04DX003 (ip), vehicle: gum acacia
  T/C: 100 % of control

## Oc1cc(O)c2c(c1)OC(c1ccc(O)c(O)c1)C(OC1(c3cc(O)c(O)c(O)c3)Oc3cc(O)cc(O)c3C(O)C1O)C2 (configuration not stated)
dose: 100.0 mg/kg/injection, schedule: Q01DX009 (ip), vehicle: saline with Tween-80
  T/C: 95 % of control
dose: 200.0 mg/kg/injection, schedule: Q01DX009 (ip), vehicle: saline with Tween-80
  T/C: 97 % of control

## CCCCCC#CC(=O)OC(C)C
dose: 100.0 mg/kg/injection, schedule: Q04DX002 (ip), vehicle: saline with Tween-80
  T/C: 102 % of control
dose: 200.0 mg/kg/injection, schedule: Q04DX002 (ip), vehicle: saline with Tween-80
  T/C: 102 % of control
dose: 400.0 mg/kg/injection, schedule: Q04DX002 (ip), vehicle: saline with Tween-80
  T/C: 102 % of control

## CCOC(=O)/C(C)=N\Nc1ccc([N+](=O)[O-])cc1
dose: 50.0 mg/kg/injection, schedule: Q01DX001 (ip), vehicle: carboxymethylcellulose (CMC)
  T/C: 92 % of control
dose: 100.0 mg/kg/injection, schedule: Q01DX001 (ip), vehicle: carboxymethylcellulose (CMC)
  T/C: 90 % of control
dose: 200.0 mg/kg/injection, schedule: Q01DX001 (ip), vehicle: carboxymethylcellulose (CMC)
  T/C: 92 % of control
dose: 400.0 mg/kg/injection, schedule: Q01DX001 (ip), vehicle: carboxymethylcellulose (CMC)
  T/C: 103 % of control

## O=C1C(Br)=CC(=NCl)C=C1Br
dose: 6.25 mg/kg/injection, schedule: Q01DX009 (ip), vehicle: DMSO
  T/C: 87 % of control
dose: 12.5 mg/kg/injection, schedule: Q01DX009 (ip), vehicle: DMSO
  T/C: 94 % of control
dose: 12.5 mg/kg/injection, schedule: Q04DX002 (ip), vehicle: DMSO
  T/C: 103 % of control
dose: 25.0 mg/kg/injection, schedule: Q04DX002 (ip), vehicle: DMSO
  T/C: 95 % of control

## O=C(O)CS(=O)(=O)c1nc2ccccc2[nH]1
dose: 100.0 mg/kg/injection, schedule: Q01DX009 (ip), vehicle: carboxymethylcellulose (CMC)
  T/C: 94 % of control
dose: 200.0 mg/kg/injection, schedule: Q01DX009 (ip), vehicle: carboxymethylcellulose (CMC)
  T/C: 91 % of control
dose: 400.0 mg/kg/injection, schedule: Q01DX009 (ip), vehicle: carboxymethylcellulose (CMC)
  T/C: 91 % of control

## CCN(CC)C(=O)O/N=C/c1ccccc1
dose: 100.0 mg/kg/injection, schedule: Q01DX001 (ip), vehicle: saline
  T/C: 94 % of control
dose: 200.0 mg/kg/injection, schedule: Q01DX001 (ip), vehicle: saline
  T/C: 91 % of control
dose: 400.0 mg/kg/injection, schedule: Q01DX001 (ip), vehicle: saline
  T/C: 96 % of control
